This note sets out measurements from US11571433B2, “Methods for treating memory impairment and cognitive dysfunction” (CARMEL HAIFA […] CORPORATION LTD., priority 2018, dated 2023).

In assay [1] the test system is Hippocampal slices from AS mice. Description: High frequency stimulation LTP (fEPSP slope) in area CA1 of hippocampal slices. Type of assay: cell-based, mouse. As to conditions: for LTP deficit after high frequency stimulation: AS mice hippocampal slices, MBG 0.5 μM 20 min before, during and 20 min after tetanization, vs vehicle. The method, then:
Electrophysiology: Hippocampal slices were prepared from wild-type and AS model mice as previously described (Kaphzan et al., 2012; Kaphzan et al., 2013). LTP was induced in area CA1 with high frequency stimulation (HFS) by delivering two 100 Hz trains of HFS with an intertrain interval of 20 sec. The initial slope of the field excitatory postsynaptic potential (fEPSP) for each experiment was expressed as the ratio to the average baseline response prior to delivery of HFS.
(§1) Drug handling: Marinobufagenin was kept in stock solution (1 mg/10 ml) in 0.5% DMSO and was freshly diluted to the required concentration 0.042 mg/mL by saline prior to the experiment. At this stock concentration a volume of 100 μL for 16 days in a rate of 0.25 μL/hour correlated to approximately 10 μg/kg/day for a mouse of 25 grams. The exact concentration was calculated for each mouse according to its body weight. As a vehicle 1:200 stock solution of DMSO in water (the maximal concentration of DMSO matched to the maximal dose of MBG, i.e. 10 μg/kg/day) was used. For delivery via osmotic pumps only mice that weigh more than 20 g were used. For LTP studies, marinobufagenin was kept at 100 mM stock solution in DMSO and was freshly dissolved in 1:100,000 carboxygenated artificial cerebrospinal fluid to the final concentration of 1 μM. For chronic injections Alzet osmotic pumps filled with marinobufagenin were used as described (Elkareh et al., 2007; Fedorova et al., 2009; Kennedy et al., 2006; Liu et al., 2012; Yoshika et al., 2007).
Hippocampal slices from WT and AS mice were stimulated with a single train of high frequency stimulation (1 sec 100 Hz-indicated by an arrow). Some of the AS slices were treated with either vehicle or MBG 0.5 μM 20 min before, during and 20 min after tetanization. WT vehicle: mice n=3, slices n=6; AS vehicle: mice n=2, slices n=4; AS MBG: mice n=2, slices n=4. P<0.05 for interaction of time and treatment in 2-way RM-ANOVA. Sample traces 1-baseline, 2-20 min after HFS.

In another assay the test system is CA1 pyramidal cells. Put plainly: Whole cell recordings of resting membrane potential of CA1 pyramidal cells in hippocampal slices. Type of assay: cell-based. Conditions: MBG 10 μM, 10 min incubation; AS mouse vs WT littermate; P=0.07. The method, then: The effect of a1-NaKA inhibition with MBG 10 μM on the resting membrane potential was tested (FIG. 2). Hippocampal slices were incubated for 10 min with MBG 10 μM. Whole cell recordings of CA1 pyramidal cells show a larger effect on the resting membrane potential of AS mouse compared to a WT littermate. WT 1 mouse, cells n=4. AS: 1 mouse cells n=5. P=0.07 for the interaction in 2 way RM-ANOVA.

A further assay has as its target T1, a1-NaKA (Mus musculus, UniProt Q8VDN2).
T1 construct: Hippocampal slices from WT and AS mice were stimulated; from tissue; host or cells: mouse hippocampal slices (WT and Angelman syndrome model mice)
Description: Inhibition of a1-NaKA. As to conditions: 0.5 μM MBG.

Assay [2] concerns AS model mice. Description: Contextual fear conditioning. Type of assay: in vivo, mouse. Conditions: IP infusion 10 μg/kg/day by osmotic pump, started 2 weeks before conditioning, tested 24 hours after training. How it is done:
as §1
Contextual fear conditioning: Mice were placed into a standard conditioning chamber and given a two-sec scrambled foot shock (0.75 mA) twice, two minutes and four minutes after session onset. […] The occurrence of freezing was measured every 10 seconds throughout training. […] The occurrence of freezing was measured every 10 sec throughout testing. […]

The subject of assay [3] is AS model mice. Put plainly: Morris water maze. Type of assay: in vivo, mouse. As to conditions: chronic MBG infusion. How it is done:
as §1
Morris water maze: MWM experiments were performed as previously described (Kaphzan et al., 2013). […] The animals' trajectories, escape latencies, number of previous platform position crossing, time spent in each quadrant, and swim speed were recorded with a computerized video-tracking system (Noldus EthoVision).

Regarding `C[C@]12CC[C@H](O)C[C@@]1(O)CC[C@@H]1[C@@H]2CC[C@]2(C)[C@@H](c3ccc(=O)oc3)C[C@H]3O[C@]132` [MBG, 3-beta,5-dihydroxy-14,15-beta-epoxy-5-beta-bufa-20,22-dienolide], the HFS-LTP impairment result in assay [1] (AS hippocampal slices incubated with MBG 1 μM) is listed as “rescue of the impaired LTP phenotype”. The “LTP deficit after high frequency stimulation” value in assay [1] is listed as “induced a recovery of LTP deficit”; in assay [1] (listed as marinobufagenin) it was “correction of long-term potentiation defects”. The baseline synaptic transmission entry in assay [1] (hippocampal slices incubated with MBG 1 μM) is “no effect on baseline synaptic transmission”; in assay [1] (hippocampal slices, MBG 0.5 μM) it was “did not affect baseline synaptic transmission”. Further, in the assay on CA1 pyramidal cells, the “effect on resting membrane potential” value is “larger effect in AS mice than in wild-type littermates”. Besides, at a1-NaKA, the “Inhibition of a1-NaKA” value is “partial and mild”. The contextual fear memory result in the assay with AS model mice [2] is listed as “corrects impaired contextual fear memory”. Further, the “visuospatial memory in the Morris water maze” value in the assay on AS model mice [3] is “impairment is corrected”.
